Among the data in PubChem BioAssay (NCI) are GI50 and TGI values, retold here.

What all share (assay): DTP human tumour cell line panel, 48 h
Experiment [1] concerns SR leukemia.
The subject of experiment [2] is NCI-H460 lung.
Experiment [3] concerns COLO 205 colon.
The subject of experiment [4] is 786-0 renal.
Experiment [5] concerns HCT-15 colon.
Experiment [6] relates to NCI-H23 lung.
Experiment [7] has as its system A498 renal.
Experiment [8] has as its system M14 melanoma.
Experiment [9] concerns MDA-MB-231 breast.
Experiment [10] concerns SK-OV-3 ovarian.

Values joined by “and” are separate entries in the source; they are usually repeats but may differ in a detail not shown here. Equal values may be shown once.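 Test compounds were applied to cells in 96-well plates for 48 hours at 5 doses. GI50 marks 50% less growth. TGI: total growth inhibition.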

With `Cc1ccc(/C=C/c2c(C(=O)/C=C/c3ccccc3)c(C)nc3ccccc23)cc1`, the GI50 in experiment [1] was 1.18 µM; in experiment [2], 1.37 µM; in experiment [3] it was 1.6 µM; in experiment [4], 1.63 µM; in [5], 1.32 µM; in [6] it was 1.64 µM. Besides, the figures for the GI50 in [7] and in experiment [8] were 1.75 µM and 1.87 µM, respectively. For the same molecule, the TGI in experiment [1] is 5.67 µM; in experiment [2], 2.99 µM; in experiment [3], 3.67 µM; in experiment [4], 3.05 µM; in experiment [5], 3.24 µM; in experiment [6], 3.78 µM. Moreover, the TGI in experiment [7] stood at 3.23 µM; in [8], 4.52 µM.

Turning to `O=C(O)C(Cc1cnc[nH]1)N1C(=O)c2ccccc2C1=O` (stereo not drawn), the TGI in [1], in experiment [2], in experiment [3], in [4], in experiment [5] and in experiment [6] was over 100 µM throughout. Moreover, the TGI in experiment [7], in experiment [8] and in [9] was over 100 µM throughout.

`CCOC(=O)NC(=O)c1cn(CCN2CCN(C(=O)CNC(=O)CNC(=O)Cn3cc(C(=O)NC(=O)OCC)c(=O)[nH]c3=O)CC2)c(=O)[nH]c1=O`: the TGI in [1], in experiment [2], in experiment [3], in experiment [4], in experiment [5] and in experiment [6] was over 100 µM each time. The concentration for total growth inhibition (TGI) in [7], in [8] and in experiment [10] was over 100 µM throughout.

Consider `CC1=CC2C(C(O)CC3(C)C2CC(C)C32OCOC23COCO3)C2(C)C/C(=C/O)C(=O)C=C12` (stereo not drawn), for which the GI50 in [1] was 2.11 µM; in [3], 1.97 µM; in [4], 1.83 µM; in experiment [5], 1.97 µM; in [6] it was 2 µM; in experiment [7], 2.83 µM. Also, the GI50 in experiment [8] is 1.66 µM; in [9], 1.75 µM; in experiment [10], 2.73 µM. For the same molecule, the TGI in experiment [1] turned out to be 4.45 µM; in [3] it was 3.47 µM; in experiment [4], 3.55 µM; in [5], 5.07 µM; in [6] it was 3.83 µM; in experiment [7], 14.8 µM. The TGI in experiment [8] came to 3.51 µM; in experiment [9] it was 3.49 µM; in experiment [10] it was 6.42 µM.

Consider `COc1ccc2c(c1)[n+](=O)c(C(=O)c1cccs1)c(C(F)(F)F)n2[O-]`, for which the GI50 is 0.775 µM in experiment [1]; 1.68 µM in [2]; 7.49 µM in experiment [3]; 17 µM in [4]; 2.88 µM in experiment [6]; 10.9 µM in experiment [8]. For the same molecule, the GI50 in experiment [9] is 7.38 µM; in experiment [10], 6.41 µM. For the same molecule, the TGI was over 50 µM in [1]; 13.8 µM in experiment [2]; over 50 µM in [3]; over 50 µM in experiment [4]; 25.8 µM in experiment [6]; over 50 µM in experiment [8]. For the same molecule, the figures for the TGI in experiment [9] and in experiment [10] were 25.4 µM and over 50 µM, respectively.

In the case of `CC(C)N(C(=O)c1cccc(C(=O)N(C(C)C)C(C)C)c1)C(C)C`, the TGI in [1], in experiment [2], in experiment [3], in experiment [4], in [5] and in experiment [6] was over 100 µM in each case. Moreover, the TGI in experiment [7], in experiment [8] and in experiment [10] was over 100 µM in each case.

For the molecule `CC(C)/C=C1\CCC(CN2CCOCC2)C1=O` (stereo not drawn), the TGI in experiment [1] is 13.1 µM; in experiment [2] it was over 60.7 µM; in experiment [3], 22.3 µM; in [4], 8.9 µM; in experiment [5] it was 19.2 µM; in experiment [6], 33.9 µM. Moreover, the TGI was over 51.3 µM in [7], 26.1 µM in experiment [8] and over 100 µM in experiment [10].

In the case of `C=CCn1c(=S)sc2c(C(=O)OCC)c3c(C)cc(C)cn3c2c1=O`, the TGI in [1], in [2], in experiment [3], in experiment [4], in [5] and in experiment [6] was over 100 µM in each case. Also, the TGI in [8] and in experiment [10] was over 100 µM in each case.

With `COc1cc(/C=C/c2ccc(C)cc2)cc(OC)c1OC`, the TGI in experiment [1] is 16.6 µM; in experiment [2] it was over 32.8 µM; in experiment [3], 13.2 µM; in [4], 36.6 µM; in experiment [5], 20.1 µM; in [6], 9.16 µM. Also, the TGI in experiment [8] is 15.3 µM; in [9], over 100 µM; in experiment [10], 39 µM.

As to `Cc1c(C(=O)C/C(=N/NC(=O)c2ccccc2)C(=O)Nc2ccc(Cl)cc2)[n+](=O)c2ccccc2n1[O-]`, the TGI in [1] was over 100 µM; in experiment [2] it was over 100 µM; in [3], over 100 µM; in [4] it was over 100 µM; in [5], over 100 µM; in experiment [6], 92.6 µM. For the same molecule, the TGI in experiment [7], in experiment [8] and in [10] was over 100 µM in each case.

For the molecule `CCC1(O)CC(OC2CC(N(C)C)C(OC3CC(O)C(OC4OC(C)C(=O)C=C4N)C(C)O3)C(C)O2)c2c(cc3c(c2O)C(=O)c2c(O)cccc2C3=O)C1C(=O)OC` (stereo not drawn), the TGI in [1] was 1.06 µM; in [3], 0.338 µM and 0.766 µM; in experiment [4], 0.0971 µM; in experiment [5], 1.66 µM and 11.8 µM; in experiment [6], 2.95 µM; in experiment [8] it was 0.656 µM. For the same molecule, the TGI in experiment [9] was 2.03 µM and 2.09 µM; in experiment [10] it was 2.51 µM and 4.32 µM. In addition, the figures for the GI50 in [5], in experiment [6] and in experiment [9] were 0.471 µM, 0.0144 µM and 0.0369 µM, respectively.
